Reference: PubChem BioAssay AID212 (DTP/NCI, 2004)
Where “and” joins values, the source holds several entries; their conditions need not be identical. Equal values may be shown once. Inconclusive results are not listed.

Test system: BDF1 mice, colon carcinoma 38 sc, T/C %
Experiment: NCI In Vivo Anticancer Drug Screen. Data for tumor model Colon Carcinoma 38 (subcutaneous) in B6D2F1 (BDF1) mice
Settings: endpoint: median tumor weight (est.), higher = larger tumour
Method in brief: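 Mice with transplanted tumors are treated with compound or vehicle. Survival or tumor size is then measured in both groups. The ratio of treated to control gives the reported figure.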

[1] = dose: 25.0 mg/kg/injection, schedule: Q07DX002 (ip), vehicle: saline with Tween-80
[2] = dose: 50.0 mg/kg/injection, schedule: Q07DX002 (ip), vehicle: saline with Tween-80
[3] = dose: 100.0 mg/kg/injection, schedule: Q07DX002 (ip), vehicle: saline with Tween-80
[4] = dose: 25.0 mg/kg/injection, schedule: Q07DX002 (ip), vehicle: Klucel (hydroxypropylcellulose) (HPC)
[5] = dose: 50.0 mg/kg/injection, schedule: Q07DX002 (ip), vehicle: Klucel (hydroxypropylcellulose) (HPC)
[6] = dose: 200.0 mg/kg/injection, schedule: Q07DX002 (ip), vehicle: Klucel (hydroxypropylcellulose) (HPC)
[7] = dose: 6.25 mg/kg/injection, schedule: Q07DX002 (ip), vehicle: Klucel (hydroxypropylcellulose) (HPC)
[8] = dose: 12.5 mg/kg/injection, schedule: Q07DX002 (ip), vehicle: Klucel (hydroxypropylcellulose) (HPC)
[9] = dose: 100.0 mg/kg/injection, schedule: Q07DX002 (ip), vehicle: Klucel (hydroxypropylcellulose) (HPC)
[10] = dose: 12.5 mg/kg/injection, schedule: Q07DX002 (ip), vehicle: saline
[11] = dose: 50.0 mg/kg/injection, schedule: Q07DX002 (ip), vehicle: saline
[12] = dose: 100.0 mg/kg/injection, schedule: Q07DX002 (ip), vehicle: saline
[13] = dose: 200.0 mg/kg/injection, schedule: Q07DX002 (ip), vehicle: saline
[14] = dose: 12.5 mg/kg/injection, schedule: Q07DX002 (ip), vehicle: saline with Tween-80

With CC1c2ccccc2Cn2cc3c(c21)C(=O)c1cccc(OP(=O)(O)OCc2ccccc2)c1C3=O (stereo not given) the T/C (dose: 0.5 mg/kg/injection, schedule: Q01DX012 (ip), vehicle: saline with Tween-80) was 62 % of control, the T/C (dose: 1.0 mg/kg/injection, schedule: Q01DX012 (ip), vehicle: saline with Tween-80) was 73 % of control and the T/C (dose: 2.0 mg/kg/injection, schedule: Q01DX012 (ip), vehicle: saline with Tween-80) was 23 % of control. The T/C (dose: 4.0 mg/kg/injection, schedule: Q01DX012 (ip), vehicle: saline with Tween-80) was 28 % of control.
With CCOC(=O)CNC(=O)CCCCSc1ncnc2nc[nH]c12 the T/C (dose: 200.0 mg/kg/injection, schedule: Q07DX003 (ip), vehicle: saline with Tween-80) was 74 % of control, the T/C (dose: 400.0 mg/kg/injection, schedule: Q07DX003 (ip), vehicle: saline with Tween-80) was 104 % of control and the T/C (dose: 800.0 mg/kg/injection, schedule: Q07DX003 (ip), vehicle: saline with Tween-80) was 79 % of control. The T/C (dose: 1600.0 mg/kg/injection, schedule: Q07DX003 (ip), vehicle: saline with Tween-80) was 82 % of control.
In the case of CC(=O)Nc1ccc(Nc2ccc(C(=C3C=CC(=[N+](C)CCC#N)C=C3)c3ccc(N(C)CCC#N)cc3)cc2)cc1, the T/C [1] is reported as 77 % of control and 93 % of control, the T/C [2] is reported as 91 % of control and the T/C [3] is reported as 52 % of control.
NC(=O)c1ncn(C2OC(CO)C(O)C2O)c1O (stereo not given) was tested, and the T/C [4] was 118 % of control, the T/C (dose: 28.0 mg/kg/injection, schedule: Q07DX002 (ip), vehicle: Klucel (hydroxypropylcellulose) (HPC)) was 51 % of control and the T/C [5] was 90 % of control. The T/C (dose: 56.0 mg/kg/injection, schedule: Q07DX002 (ip), vehicle: Klucel (hydroxypropylcellulose) (HPC)) was 48 % of control, the T/C (dose: 112.0 mg/kg/injection, schedule: Q07DX002 (ip), vehicle: Klucel (hydroxypropylcellulose) (HPC)) was 79 % of control and the T/C [6] was 114 % of control and 98 % of control. The T/C (dose: 225.0 mg/kg/injection, schedule: Q07DX002 (ip), vehicle: Klucel (hydroxypropylcellulose) (HPC)) was 68 % of control, the T/C (dose: 400.0 mg/kg/injection, schedule: Q07DX002 (ip), vehicle: Klucel (hydroxypropylcellulose) (HPC)) was 105 % of control and 107 % of control and the T/C (dose: 450.0 mg/kg/injection, schedule: Q07DX002 (ip), vehicle: Klucel (hydroxypropylcellulose) (HPC)) was 61 % of control. For the same compound, the T/C (dose: 800.0 mg/kg/injection, schedule: Q07DX002 (ip), vehicle: Klucel (hydroxypropylcellulose) (HPC)) was 75 % of control and the T/C (dose: 900.0 mg/kg/injection, schedule: Q07DX002 (ip), vehicle: Klucel (hydroxypropylcellulose) (HPC)) was 61 % of control.
With OC1CCCC2CCCNC12 (stereo not given) the T/C [7] was 102 % of control, the T/C [8] was 100 % of control and the T/C [4] was 85 % of control. The T/C [5] was 100 % of control and the T/C [9] was 109 % of control.
CO[C@@]12[C@H](COC(N)=O)C3=C(C(=O)C(C)=C(N)C3=O)N1C[C@@H]1N[C@@H]12 was tested, and the T/C (dose: 0.5 mg/kg/injection, schedule: Q07DX002 (ip), vehicle: saline) was 62 % of control and 70 % of control, the T/C (dose: 0.5 mg/kg/injection, schedule: Q07DX002 (ip), vehicle: water) was 90 % of control and the T/C (dose: 1.0 mg/kg/injection, schedule: Q07DX002 (ip), vehicle: clinical formulation) was 85 % of control. For the same compound, the T/C (dose: 1.0 mg/kg/injection, schedule: Q07DX002 (ip), vehicle: saline) was 58 % of control and 61 % of control, the T/C (dose: 1.0 mg/kg/injection, schedule: Q07DX002 (ip), vehicle: water) was 80 % of control and the T/C (dose: 2.0 mg/kg/injection, schedule: Q07DX002 (ip), vehicle: clinical formulation) was 84 % of control. For the same compound, the T/C (dose: 2.0 mg/kg/injection, schedule: Q07DX002 (ip), vehicle: saline) was 35 % of control and 51 % of control, the T/C (dose: 2.0 mg/kg/injection, schedule: Q07DX002 (ip), vehicle: water) was 30 % of control and the T/C (dose: 3.75 mg/kg/injection, schedule: Q07DX002 (oral), vehicle: water) was 112 % of control. The T/C (dose: 4.0 mg/kg/injection, schedule: Q07DX002 (ip), vehicle: clinical formulation) was 20 % of control, the T/C (dose: 4.0 mg/kg/injection, schedule: Q07DX002 (ip), vehicle: saline) was 8 % of control and 22 % of control and the T/C (dose: 4.0 mg/kg/injection, schedule: Q07DX002 (ip), vehicle: water) was 13 % of control. For the same compound, the T/C (dose: 7.5 mg/kg/injection, schedule: Q07DX002 (oral), vehicle: water) was 93 % of control, the T/C (dose: 15.0 mg/kg/injection, schedule: Q07DX002 (oral), vehicle: water) was 21 % of control and the T/C (dose: 30.0 mg/kg/injection, schedule: Q07DX002 (oral), vehicle: water) was 28 % of control.
In the case of COc1cc2cc3cc4cc(OC)c(OC)cc4c(C)[n+]3cc2cc1OC (tested in a mixture with another compound), the T/C [10] is reported as 74 % of control and 94 % of control, the T/C (dose: 12.5 mg/kg/injection, schedule: Q07DX002 (ip), vehicle: suspension in saline) is reported as 83 % of control and the T/C (dose: 25.0 mg/kg/injection, schedule: Q07DX002 (ip), vehicle: suspension in saline) is reported as 85 % of control. The T/C [11] was 81 % of control and 100 % of control, the T/C (dose: 50.0 mg/kg/injection, schedule: Q07DX002 (ip), vehicle: suspension in saline) was 98 % of control and the T/C [12] was 82 % of control and 88 % of control. For the same compound, the T/C (dose: 100.0 mg/kg/injection, schedule: Q07DX002 (ip), vehicle: suspension in saline) was 116 % of control, the T/C [13] was 74 % of control and the T/C (dose: 200.0 mg/kg/injection, schedule: Q07DX002 (ip), vehicle: suspension in saline) was 50 % of control. For the same compound, the T/C (dose: 400.0 mg/kg/injection, schedule: Q07DX002 (ip), vehicle: suspension in saline) was 89 % of control.
For C[CH2][Sn]1([CH2]C)[O]OC(c2ccccc2)[O]1 (stereo not given), the T/C (dose: 1.56 mg/kg/injection, schedule: Q07DX002 (ip), vehicle: saline with Tween-80) was 121 % of control, the T/C (dose: 6.25 mg/kg/injection, schedule: Q07DX002 (ip), vehicle: saline with Tween-80) was 237 % of control and the T/C [14] was 195 % of control. For the same compound, the T/C [1] was 84 % of control.
For N=[N+]=CC(=O)CCC(NC(=O)C(CCC(=O)C=[N+]=N)NC(=O)CCC(N)C(=O)O)C(=O)O (stereo not given), the T/C (dose: 3.12 mg/kg/injection, schedule: Q07DX003 (ip), vehicle: clinical formulation) was 54 % of control, the T/C (dose: 3.12 mg/kg/injection, schedule: Q07DX003 (ip), vehicle: water) was 52 % of control and the T/C (dose: 6.25 mg/kg/injection, schedule: Q07DX003 (ip), vehicle: clinical formulation) was 62 % of control. For the same compound, the T/C (dose: 6.25 mg/kg/injection, schedule: Q07DX003 (ip), vehicle: water) was 48 % of control, the T/C (dose: 12.5 mg/kg/injection, schedule: Q07DX003 (ip), vehicle: clinical formulation) was 46 % of control and the T/C (dose: 12.5 mg/kg/injection, schedule: Q07DX003 (ip), vehicle: water) was 32 % of control. The T/C (dose: 25.0 mg/kg/injection, schedule: Q07DX003 (ip), vehicle: clinical formulation) was 40 % of control, the T/C (dose: 25.0 mg/kg/injection, schedule: Q07DX003 (ip), vehicle: water) was 44 % of control and the T/C (dose: 50.0 mg/kg/injection, schedule: Q07DX003 (ip), vehicle: clinical formulation) was 18 % of control. For the same compound, the T/C (dose: 50.0 mg/kg/injection, schedule: Q07DX003 (ip), vehicle: water) was 12 % of control.
For CCCCCCC(=O)/C=C/c1cccc(OCOCC)c1, the T/C [2] was 122 % of control, the T/C [3] was 103 % of control and the T/C (dose: 200.0 mg/kg/injection, schedule: Q07DX002 (ip), vehicle: saline with Tween-80) was 104 % of control. The T/C (dose: 400.0 mg/kg/injection, schedule: Q07DX002 (ip), vehicle: saline with Tween-80) was 89 % of control.
For OCC1OC(n2cnc3cc(Cl)c(Cl)cc32)C(O)C1O (stereo not given), the T/C [14] was 101 % of control, the T/C [1] was 98 % of control and the T/C [2] was 105 % of control. The T/C [3] was 98 % of control.
CNC(=O)OCc1c(COC(=O)NC)c(C)n(-c2ccc(OC)cc2)c1C was tested, and the T/C [7] was 82 % of control, the T/C [8] was 69 % of control and the T/C [5] was 111 % of control. For the same compound, the T/C [9] was 68 % of control and 93 % of control and the T/C [6] was 49 % of control.
COc1cc(C2C3=C(CC(C)(C)CC3=O)N(CC(=O)O)C3=C2C(=O)CC(C)(C)C3)ccc1O was tested, and the T/C [10] was 90 % of control, the T/C (dose: 25.0 mg/kg/injection, schedule: Q07DX002 (ip), vehicle: saline) was 99 % of control and the T/C [11] was 118 % of control. The T/C [12] was 111 % of control, the T/C [13] was 55 % of control and the T/C (dose: 400.0 mg/kg/injection, schedule: Q07DX002 (ip), vehicle: saline) was 118 % of control.
